Results reported in ChEMBL document CHEMBL5321215, “Discovery of quinazolin-4(3H)-one derivatives as novel AChE inhibitors with anti-inflammatory activities” (Eur J Med Chem, 2023).
Active and inactive are the calls of the source. No cut-off for these calls is given here.

Tests used:
[1] = target: Cholinesterase (Equus caballus) (UniProt P81908); experiment: Inhibition of equine serum BChE at 20 uM by Ellman's method relative to control; format: cell-free
[2] = target: Acetylcholinesterase (Electrophorus electricus) (UniProt O42275); experiment: Inhibition of electric eel AChE using acetylthiocholine iodide as substrate at 20 uM incubated for 20 mins by Ellman's method relative to control
Acetylcholinesterase (Electrophorus electricus), sequence (O42275 24-633 limits assumed): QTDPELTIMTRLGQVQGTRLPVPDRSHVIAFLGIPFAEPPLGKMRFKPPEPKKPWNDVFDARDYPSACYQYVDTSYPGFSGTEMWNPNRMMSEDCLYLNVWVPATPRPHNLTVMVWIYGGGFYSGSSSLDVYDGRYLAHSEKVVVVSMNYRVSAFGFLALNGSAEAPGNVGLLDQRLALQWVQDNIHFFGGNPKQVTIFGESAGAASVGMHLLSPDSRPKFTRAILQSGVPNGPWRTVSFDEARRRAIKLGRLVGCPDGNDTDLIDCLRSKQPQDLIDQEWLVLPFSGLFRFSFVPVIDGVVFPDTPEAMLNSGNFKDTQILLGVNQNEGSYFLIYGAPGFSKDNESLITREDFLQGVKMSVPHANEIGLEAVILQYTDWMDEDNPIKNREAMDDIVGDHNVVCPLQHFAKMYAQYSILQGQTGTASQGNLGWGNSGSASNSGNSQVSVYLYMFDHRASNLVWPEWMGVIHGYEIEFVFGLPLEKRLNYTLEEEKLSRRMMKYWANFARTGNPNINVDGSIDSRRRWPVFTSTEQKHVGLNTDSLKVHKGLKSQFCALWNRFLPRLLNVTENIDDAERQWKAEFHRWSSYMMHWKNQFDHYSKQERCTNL

Acetylcholinesterase [3] = target: Acetylcholinesterase (Electrophorus electricus, UniProt O42275); experiment: Inhibition of electric eel AChE using acetylthiocholine iodide as substrate incubated for 20 mins by Ellman's method
Acetylcholinesterase (Electrophorus electricus, UniProt O42275), sequence (O42275 whole entry): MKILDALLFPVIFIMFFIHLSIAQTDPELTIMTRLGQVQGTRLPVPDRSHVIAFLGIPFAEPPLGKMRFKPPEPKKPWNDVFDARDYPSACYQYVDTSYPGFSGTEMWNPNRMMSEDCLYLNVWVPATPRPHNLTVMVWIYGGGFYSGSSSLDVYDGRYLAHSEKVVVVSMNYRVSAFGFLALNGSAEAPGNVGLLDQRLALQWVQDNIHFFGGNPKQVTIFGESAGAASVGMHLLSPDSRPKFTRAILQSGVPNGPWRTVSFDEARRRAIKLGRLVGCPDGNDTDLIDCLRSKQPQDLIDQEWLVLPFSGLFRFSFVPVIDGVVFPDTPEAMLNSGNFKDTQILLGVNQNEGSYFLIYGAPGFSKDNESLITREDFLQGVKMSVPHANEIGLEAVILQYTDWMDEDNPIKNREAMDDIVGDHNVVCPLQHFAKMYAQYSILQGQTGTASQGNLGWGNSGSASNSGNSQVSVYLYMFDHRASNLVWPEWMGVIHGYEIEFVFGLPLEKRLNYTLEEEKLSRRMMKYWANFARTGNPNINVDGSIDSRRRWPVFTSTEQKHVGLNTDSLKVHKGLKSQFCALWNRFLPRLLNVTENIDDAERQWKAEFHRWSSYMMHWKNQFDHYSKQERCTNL

RAW264.7 [4] = experiment: Antiinflammatory activity against mouse RAW264.7 cells assessed as inhibition of LPS-induced nitric oxide production at 20 uM preincubated for 24 hrs followed by LPS stimulation by Griess reagent-based colorimetric assay relative to control; format: functional; design: scale not given: the % may be the effect or the level left
Cholinesterase [5] = target: T1, Cholinesterase (Equus caballus, UniProt P81908); experiment: Inhibition of equine serum BChE by Ellman's method; format: cell-free
T1 sequence (P81908 whole entry): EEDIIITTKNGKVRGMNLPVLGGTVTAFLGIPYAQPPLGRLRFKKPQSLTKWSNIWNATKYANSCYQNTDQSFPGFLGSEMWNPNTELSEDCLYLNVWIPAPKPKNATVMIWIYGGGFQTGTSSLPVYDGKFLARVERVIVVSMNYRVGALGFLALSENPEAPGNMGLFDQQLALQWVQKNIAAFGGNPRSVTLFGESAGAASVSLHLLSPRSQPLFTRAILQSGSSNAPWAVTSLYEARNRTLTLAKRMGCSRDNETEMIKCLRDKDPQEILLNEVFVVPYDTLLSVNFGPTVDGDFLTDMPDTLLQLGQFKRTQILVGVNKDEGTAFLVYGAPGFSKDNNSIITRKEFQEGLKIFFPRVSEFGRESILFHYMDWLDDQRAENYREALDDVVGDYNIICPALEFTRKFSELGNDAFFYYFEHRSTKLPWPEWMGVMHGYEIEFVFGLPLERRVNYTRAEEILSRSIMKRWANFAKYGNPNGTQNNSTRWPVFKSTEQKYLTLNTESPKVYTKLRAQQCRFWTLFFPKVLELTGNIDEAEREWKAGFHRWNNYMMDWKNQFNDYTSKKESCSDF

BV-2 [6] = experiment: Inhibition of NF-kappaB pathway in LPS-induced mouse BV-2 cells assessed as reduction in phosphorylated p65 protein expression level at 10 uM incubated for 24 hrs by Western blot analysis; format: cell-based
[7] = target: NACHT, LRR and PYD domains-containing protein 3 (Mus musculus) (UniProt Q8R4B8); experiment: Inhibition of NLRP3 inflammasome in LPS-induced mouse BV-2 cells assessed as decrease in NLRP3 protein expression at 10 uM incubated for 24 hrs by Western blot analysis; format: cell-based
NACHT, LRR and PYD domains-containing protein 3 (Mus musculus), sequence (Q8R4B8 whole entry, the tested form may be a part): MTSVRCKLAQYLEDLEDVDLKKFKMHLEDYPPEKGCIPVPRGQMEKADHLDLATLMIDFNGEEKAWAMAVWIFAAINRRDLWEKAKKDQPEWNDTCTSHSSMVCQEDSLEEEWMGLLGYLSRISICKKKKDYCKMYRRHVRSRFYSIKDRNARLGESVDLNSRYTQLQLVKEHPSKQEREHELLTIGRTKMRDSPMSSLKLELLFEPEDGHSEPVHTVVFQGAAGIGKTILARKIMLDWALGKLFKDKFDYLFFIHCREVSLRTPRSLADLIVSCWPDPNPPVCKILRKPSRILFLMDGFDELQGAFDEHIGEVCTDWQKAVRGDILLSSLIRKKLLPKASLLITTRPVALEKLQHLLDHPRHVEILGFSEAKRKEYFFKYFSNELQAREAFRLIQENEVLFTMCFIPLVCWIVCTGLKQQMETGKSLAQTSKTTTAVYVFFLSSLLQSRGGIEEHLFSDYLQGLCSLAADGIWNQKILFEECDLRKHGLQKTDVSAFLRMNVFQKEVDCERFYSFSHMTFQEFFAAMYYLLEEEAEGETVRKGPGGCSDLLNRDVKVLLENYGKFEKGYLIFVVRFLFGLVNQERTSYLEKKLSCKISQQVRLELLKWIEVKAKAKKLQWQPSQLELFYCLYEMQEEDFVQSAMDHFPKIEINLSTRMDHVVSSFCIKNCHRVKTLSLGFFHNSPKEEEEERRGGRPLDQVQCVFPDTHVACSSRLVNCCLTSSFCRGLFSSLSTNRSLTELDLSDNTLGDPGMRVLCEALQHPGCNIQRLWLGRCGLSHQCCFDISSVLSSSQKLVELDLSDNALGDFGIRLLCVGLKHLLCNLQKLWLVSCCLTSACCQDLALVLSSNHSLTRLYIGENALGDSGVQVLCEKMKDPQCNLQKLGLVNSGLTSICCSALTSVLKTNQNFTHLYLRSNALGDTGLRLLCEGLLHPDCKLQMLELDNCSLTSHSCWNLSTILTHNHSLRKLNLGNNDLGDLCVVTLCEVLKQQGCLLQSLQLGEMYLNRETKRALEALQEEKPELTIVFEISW

BV-2 [8] = experiment: Antiinflammatory activity against mouse BV-2 cells assessed as reduction in LPS-induced TNF-alpha mRNA expression measured after 24 hrs by qRT-PCR analysis; format: functional, cell-based; conditions: dose 1.25-10 µM
[9] = target: Acetylcholinesterase (Electrophorus electricus) (UniProt O42275); experiment: Non competitive inhibition of Electric eel AChE using acetylthiocholine iodide as substrate assessed as decrease in Vmax with constant Km by Lineweaver-Burk plot analysis
BV-2 [10] = experiment: Antiinflammatory activity against mouse BV-2 cells assessed as reduction in LPS-induced IL-6 mRNA expression level measured after 24 hrs by qRT-PCR analysis; format: functional, cell-based; conditions: dose 1.25-10 µM
BV-2 [11] = experiment: Inhibition of MAPK/JNK signalling pathway in LPS-induced mouse BV-2 cells assessed as reduction in JNK phosphorylation level at 10 uM incubated for 24 hrs by Western blot analysis; format: cell-based
RAW264.7 [12] = experiment: Antiinflammatory activity against mouse RAW264.7 cells assessed as inhibition of LPS-induced nitric oxide production preincubated for 24 hrs followed by LPS stimulation by Griess reagent-based colorimetric assay; format: functional, cell-based
BV-2 [13] = experiment: Effect on JNK protein level in LPS-induced mouse BV-2 cells at 10 uM incubated for 24 hrs by Western blot analysis; format: functional, cell-based
BV-2 [14] = experiment: Antiinflammatory activity against mouse BV-2 cells assessed as reduction in LPS-induced IL-1beta mRNA expression measured after 24 hrs by qRT-PCR analysis; format: functional, cell-based; conditions: dose 1.25-10 µM
BV-2 [15] = experiment: Cytotoxicity against mouse BV-2 cells assessed as reduction in cell viability at 10 uM incubated for 24 hrs by CCK-8 assay; format: toxicity, cell-based; conditions: bv-2, 24 h
BV-2 [16] = experiment: Inhibition of NF-kappaB pathway in LPS-induced mouse BV-2 cells assessed as reduction in p65 protein expression level at 10 uM incubated for 24 hrs by Western blot analysis; format: cell-based
BV-2 [17] = experiment: Antiinflammatory activity against mouse BV-2 cells assessed as reduction in LPS-induced CCL2 mRNA expression measured after 24 hrs by qRT-PCR analysis; format: functional, cell-based; conditions: dose 1.25-10 µM
[18] = target: Cholinesterase (Equus caballus) (UniProt P81908); experiment: Non competitive inhibition of equine serum BChE assessed as decrease in Vmax with constant Km by Lineweaver-Burk plot analysis; format: cell-free
Acetylcholinesterase [19] = target: Acetylcholinesterase (Homo sapiens, UniProt P22303); experiment: Inhibition of AChE (unknown origin)
Acetylcholinesterase (Homo sapiens, UniProt P22303), sequence (P22303 whole entry): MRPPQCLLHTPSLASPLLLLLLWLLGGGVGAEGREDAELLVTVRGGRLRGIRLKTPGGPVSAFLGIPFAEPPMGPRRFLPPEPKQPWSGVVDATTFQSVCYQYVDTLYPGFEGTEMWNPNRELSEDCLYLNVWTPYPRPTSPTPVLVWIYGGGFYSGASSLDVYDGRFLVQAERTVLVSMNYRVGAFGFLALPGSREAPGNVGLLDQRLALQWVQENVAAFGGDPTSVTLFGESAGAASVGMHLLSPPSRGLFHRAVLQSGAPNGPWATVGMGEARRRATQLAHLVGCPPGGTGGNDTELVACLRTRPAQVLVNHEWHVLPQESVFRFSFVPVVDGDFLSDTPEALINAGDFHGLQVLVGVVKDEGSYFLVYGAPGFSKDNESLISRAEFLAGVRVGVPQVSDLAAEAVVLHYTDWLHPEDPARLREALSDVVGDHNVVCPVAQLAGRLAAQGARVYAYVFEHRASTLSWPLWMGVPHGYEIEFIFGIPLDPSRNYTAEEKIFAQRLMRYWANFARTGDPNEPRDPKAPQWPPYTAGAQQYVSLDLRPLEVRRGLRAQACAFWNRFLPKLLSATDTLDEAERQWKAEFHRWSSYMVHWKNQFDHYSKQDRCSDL

Cholinesterase [20] = target: Cholinesterase (Homo sapiens, UniProt P06276); experiment: Inhibition of BChE (unknown origin)
Cholinesterase (Homo sapiens, UniProt P06276), sequence (P06276 whole entry): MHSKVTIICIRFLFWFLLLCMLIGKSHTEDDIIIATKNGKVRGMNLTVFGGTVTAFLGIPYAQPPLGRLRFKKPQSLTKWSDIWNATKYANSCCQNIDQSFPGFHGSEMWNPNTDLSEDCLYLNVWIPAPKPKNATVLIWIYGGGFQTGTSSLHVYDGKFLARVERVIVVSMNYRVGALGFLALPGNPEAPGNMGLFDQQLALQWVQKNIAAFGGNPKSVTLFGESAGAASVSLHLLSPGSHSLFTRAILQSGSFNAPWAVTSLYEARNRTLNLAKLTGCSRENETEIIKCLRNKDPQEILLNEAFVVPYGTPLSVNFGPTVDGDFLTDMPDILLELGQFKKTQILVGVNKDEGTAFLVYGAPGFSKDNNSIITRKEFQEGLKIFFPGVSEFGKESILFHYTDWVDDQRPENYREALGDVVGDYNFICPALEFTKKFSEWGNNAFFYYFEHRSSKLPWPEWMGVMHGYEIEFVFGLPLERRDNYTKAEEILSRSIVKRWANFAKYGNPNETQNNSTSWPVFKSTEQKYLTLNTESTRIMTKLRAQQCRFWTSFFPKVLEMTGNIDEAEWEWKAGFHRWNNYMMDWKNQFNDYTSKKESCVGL

Cholinesterase [21] = target: T1, Cholinesterase; experiment: Mixed type inhibition of equine serum BChE assessed as inhibition constant by Lineweaver-Burk plot analysis; format: cell-free
[22] = target: Cholinesterase (Equus caballus) (UniProt P81908); experiment: Mixed type inhibition of equine serum BChE assessed as Kis by Lineweaver-Burk plot analysis; format: cell-free
[23] = target: Cholinesterase (Equus caballus) (UniProt P81908); experiment: Mixed type inhibition of equine serum BChE assessed as increase in slope and Y-intercept at increasing concentration by Lineweaver-Burk plot analysis; format: cell-free

Cholinesterase (Equus caballus), sequence (P81908 whole entry): as the sequence (P81908 whole entry) above

Row | Compound | inhibition [1] | inhibition [2] [%] | other results
1 | COc1cc(OC)c2c(=O)[nH]c(C(=O)c3cc(OC)c(OC)c(OC)c3)nc2c1 | inactive | 23.1 | –
2 | COc1cc(OC)c2c(=O)[nH]c(-c3c[nH]c4ccccc34)nc2c1 | 8.91% | 31.9 | –
3 | COc1cc(-c2nc3ccc(NC(=O)c4ccc(Cl)cc4)cc3c(=O)[nH]2)cc(OC)c1OC | 14.9% | 10.6 | –
4 | COc1cc(OC)c2c(=O)[nH]c(-c3cc(OC)c(OC)c(OC)c3)nc2c1 | 10.9% | 38.7 | –
5 | COc1cc(OC)c2c(=O)[nH]c(-c3ccc(N4CCN(CCO)CC4)cc3)nc2c1 | 3.32% | 62.4 | –
6 | COc1cc(-c2nc3ccc(NCc4ccc(N5CCN(C)CC5)cc4)cc3c(=O)[nH]2)cc(OC)c1OC | inactive | 23.6 | –
7 | COc1cc(-c2nc3ccccc3c(=O)[nH]2)cc(OC)c1OC | 32.9% | 47.9 | –
8 | CN1CCN(c2ccc(-c3nc4ccc([N+](=O)[O-])cc4c(=O)[nH]3)cc2)CC1 | 63.7% | 69.4 | IC50 (Acetylcholinesterase [3]): 5.49 µM; Activity (RAW264.7 [4]): 27.1%; IC50 (Cholinesterase [5]): > 100 µM
9 | COc1cc(-c2nc3ccc([N+](=O)[O-])cc3c(=O)[nH]2)cc(OC)c1OC | inactive | 2.52 | –
10 | COc1cc(OC)c2c(=O)[nH]c(-c3ccc(N4CCN(C)CC4)cc3)nc2c1 | 38.7% | 91.8 | IC50 (Acetylcholinesterase [3]): 5.04 µM; inhibition (BV-2 [6]): Active; inhibition [7]: Active; Activity (BV-2 [8]): Dose-Dependent Effect; inhibition [9]: Active; Activity (RAW264.7 [4]): 116.4%; Activity (BV-2 [10]): Dose-Dependent Effect; inhibition (BV-2 [11]): Active; IC50 (RAW264.7 [12]): 3.29 µM; Activity (BV-2 [13]): Active; IC50 (Cholinesterase [5]): > 20 µM; Activity (BV-2 [14]): Dose-Dependent Effect; Activity (BV-2 [15]): Non-Toxic; inhibition (BV-2 [16]): Active; Activity (BV-2 [17]): Dose-Dependent Effect
11 | COc1cc(OC)c2c(=O)[nH]c(-c3nc[nH]c3C)nc2c1 | 25.9% | 60.8 | IC50 (Acetylcholinesterase [3]): 28.1 µM; Activity (RAW264.7 [4]): 61.2%; IC50 (Cholinesterase [5]): > 20 µM
12 | COc1cc(-c2nc3ccc(NC(=O)CCl)cc3c(=O)[nH]2)cc(OC)c1OC | 9.51% | 32.5 | –
13 | COc1cc(OC)c2c(=O)[nH]c(-c3ccc(O[C@@H]4O[C@H](CO)[C@@H](O)[C@@H](O)[C@H]4O)cc3)nc2c1 | 11.3% | 32.8 | –
14 | O=c1[nH]c(C2CCN(Cc3ccccc3)CC2)nc2ccc([N+](=O)[O-])cc12 | inactive | 59.6 | IC50 (Acetylcholinesterase [3]): 6.86 µM; Activity (RAW264.7 [4]): 40.4%; IC50 (Cholinesterase [5]): > 20 µM
15 | CN1CCN(c2ccc(-c3nc4ccc(Br)cc4c(=O)[nH]3)cc2)CC1 | 31.2% | 60.8 | IC50 (Acetylcholinesterase [3]): 16.1 µM; Activity (RAW264.7 [4]): 42.7%; IC50 (Cholinesterase [5]): > 20 µM
16 | COc1cc(-c2nc3ccc(NC(=O)CN4CCCCC4)cc3c(=O)[nH]2)cc(OC)c1OC | inactive | 24.6 | –
17 | COc1cc(OC)c2c(=O)[nH]c(-c3ccc(-c4ccncc4)cc3)nc2c1 | 1.72% | 30.9 | –
18 | COc1cc(-c2nc3ccc(NCC4CCN(Cc5ccccc5)CC4)cc3c(=O)[nH]2)cc(OC)c1OC | 68.6% | 69 | IC50 (Acetylcholinesterase [3]): 4.31 µM; inhibition [9]: Active; Activity (RAW264.7 [4]): 94%; IC50 (Cholinesterase [5]): 11.2 µM; inhibition [18]: Active; Activity (BV-2 [15]): Toxic
19 | COc1cc(OC)c2c(=O)[nH]c(C3CCN(Cc4ccccc4)CC3)nc2c1 | 59.1% | 83.4 | IC50 (Acetylcholinesterase [3]): 7.88 µM; Activity (RAW264.7 [4]): 60.5%; IC50 (RAW264.7 [12]): 21.3 µM; IC50 (Cholinesterase [5]): 36.9 µM
20 | COc1cc(OC)c2c(=O)[nH]c(-c3c[nH]cn3)nc2c1 | 13.1% | 40.4 | –

Row | Compound | inhibition [1] | inhibition [2] [%] | other results
21 | COc1cc(OC)c2c(=O)[nH]c(-c3ccc(N4CCNCC4)cc3)nc2c1 | inactive | 44.2 | –
22 | COc1cc(OC)c2c(=O)[nH]c(-c3ccc(N4CCOCC4)cc3)nc2c1 | 16.5% | 47.3 | –
23 | O=c1[nH]c(C2CCN(Cc3ccccc3)CC2)nc2ccccc12 | 48.6% | 63.3 | –
24 | COc1cc(-c2nc3ccc(NC(=O)CCN4CCCCC4)cc3c(=O)[nH]2)cc(OC)c1OC | 14.6% | 26.1 | –
25 | CN1CCN(c2ccc(-c3nc4ccccc4c(=O)[nH]3)cc2)CC1 | 24.1% | 68.1 | IC50 (Acetylcholinesterase [3]): 30.4 µM; Activity (RAW264.7 [4]): 45.6%; IC50 (Cholinesterase [5]): > 20 µM
26 | COc1cc(-c2nc3ccc(Br)cc3c(=O)[nH]2)cc(OC)c1OC | 12.4% | 33.8 | –
27 | CCN(CC)c1ccc(-c2nc3cc(OC)cc(OC)c3c(=O)[nH]2)cc1 | inactive | 23.7 | –
28 | COc1cc(OC)c2c(=O)[nH]c(-c3cccs3)nc2c1 | 35.3% | 44.2 | –
29 | C[C@@H]1C[C@H]2[C@@H]3CCC4=CC(=O)C=C[C@]4(C)[C@@]3(F)[C@@H](O)C[C@]2(C)[C@@]1(O)C(=O)CO [DEXAMETHASONE] | – | – | Activity (RAW264.7 [4]): 60.3%; IC50 (RAW264.7 [12]): 11.5 µM
30 | CN1CCN(c2ccc(-c3nc4ccc(N)cc4c(=O)[nH]3)cc2)CC1 | 3.32% | 58.6 | –
31 | CON(C)C(=O)Oc1ccccc1C(=O)NCCc1c[nH]c2ccccc12 | – | – | IC50 (Acetylcholinesterase [19]): 3.24 µM; IC50 (Cholinesterase [20]): 1.84 µM
32 | COc1cc(-c2nc3ccc(NC(=O)CCN4CCN(C)CC4)cc3c(=O)[nH]2)cc(OC)c1OC | inactive | 24.7 | –
33 | COc1cc(OC)c2c(=O)[nH]c(-c3ccc(N4CCN(C(=O)OC(C)(C)C)CC4)cc3)nc2c1 | inactive | 37.4 | –
34 | COc1cc(-c2nc3ccc(NC(=O)c4ccc(F)cc4)cc3c(=O)[nH]2)cc(OC)c1OC | 12.7% | 6.3 | –
35 | O=c1[nH]c(C2CCN(Cc3ccccc3)CC2)nc2ccc(Br)cc12 | 14.6% | 31.7 | –
36 | COc1cc(-c2nc3ccc(NC(=O)CCN4CCC(O)CC4)cc3c(=O)[nH]2)cc(OC)c1OC | 15.8% | 20.2 | –
37 | COc1cc(OC)c2c(=O)[nH]c(-c3cn(Cc4ccccc4)cn3)nc2c1 | 95% | 87.9 | IC50 (Acetylcholinesterase [3]): 7.01 µM; Ki (Cholinesterase [21]): 0.74 µM; Activity (RAW264.7 [4]): 33.4%; IC50 (Cholinesterase [5]): 0.83 µM; Kis [22]: 8.58 µM; Activity (BV-2 [15]): Toxic; inhibition [23]: Active
38 | COc1cc(OC)c2c(=O)[nH]c(C(=O)c3ccc(O)cc3)nc2c1 | inactive | 7.74 | –
39 | COc1cc(-c2nc3ccc(NC(=O)c4ccc(Br)cc4)cc3c(=O)[nH]2)cc(OC)c1OC | 8.3% | 23.5 | –
